# Results published in PubChem BioAssay AID192 (DTP/NCI, 2004).
# “And” between values parts separate entries of the source, which are not always exact repeats. Equal entries are not always repeated. Toxic doses and inconclusive results are not listed.
# System: BDF1 mice, B16 melanoma ip, median survival T/C
# Experiment: NCI In Vivo Anticancer Drug Screen. Data for tumor model B16 Melanoma (intraperitoneal) in B6D2F1 (BDF1) mice
# Conditions: endpoint: median survival time, higher = longer survival
# In short: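 In this screen, activity was judged from survival or tumor size in treated versus vehicle-treated tumor-bearing mice, reported as T/C.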
# [1] = dose: 12.5 mg/kg/injection, schedule: Q01DX009 (ip), vehicle: saline
# [2] = dose: 12.5 mg/kg/injection, schedule: Q01DX009 (ip), vehicle: water
# [3] = dose: 25.0 mg/kg/injection, schedule: Q01DX009 (ip), vehicle: saline
# [4] = dose: 25.0 mg/kg/injection, schedule: Q01DX009 (ip), vehicle: suspension in saline
# [5] = dose: 25.0 mg/kg/injection, schedule: Q01DX009 (ip), vehicle: water
# [6] = dose: 50.0 mg/kg/injection, schedule: Q01DX009 (ip), vehicle: saline
# [7] = dose: 50.0 mg/kg/injection, schedule: Q01DX009 (ip), vehicle: suspension in saline
# [8] = dose: 50.0 mg/kg/injection, schedule: Q01DX009 (ip), vehicle: water
# [9] = dose: 100.0 mg/kg/injection, schedule: Q01DX009 (ip), vehicle: suspension in saline
# [10] = dose: 6.25 mg/kg/injection, schedule: Q01DX009 (ip), vehicle: Klucel (hydroxypropylcellulose) (HPC)
# [11] = dose: 12.5 mg/kg/injection, schedule: Q01DX009 (ip), vehicle: Klucel (hydroxypropylcellulose) (HPC)
# [12] = dose: 25.0 mg/kg/injection, schedule: Q01DX009 (ip), vehicle: Klucel (hydroxypropylcellulose) (HPC)
# [13] = dose: 25.0 mg/kg/injection, schedule: Q01DX009 (ip), vehicle: saline with Tween-80
# [14] = dose: 50.0 mg/kg/injection, schedule: Q01DX009 (ip), vehicle: saline with Tween-80
# [15] = dose: 100.0 mg/kg/injection, schedule: Q01DX009 (ip), vehicle: saline with Tween-80
# [16] = dose: 50.0 mg/kg/injection, schedule: Q01DX009 (ip), vehicle: Klucel (hydroxypropylcellulose) (HPC)
smiles,measurement,setting,value
CC1(c2ccc(N(CCCl)CCCl)cc2)NC(=O)NC1=O (stereo unspecified),T/C,"dose: 2.5 mg/kg/injection, schedule: Q01DX009 (ip), vehicle: Klucel (hydroxypropylcellulose) (HPC)",104 % of control
same,T/C,"dose: 5.0 mg/kg/injection, schedule: Q01DX009 (ip), vehicle: Klucel (hydroxypropylcellulose) (HPC)",94 % of control and 111 % of control
same,T/C,"dose: 18.75 mg/kg/injection, schedule: Q01DX009 (ip), vehicle: Klucel (hydroxypropylcellulose) (HPC)",119 % of control
same,T/C,"dose: 20.0 mg/kg/injection, schedule: Q01DX009 (ip), vehicle: Klucel (hydroxypropylcellulose) (HPC)",120 % of control and 123 % of control
same,T/C,"dose: 37.5 mg/kg/injection, schedule: Q01DX009 (ip), vehicle: Klucel (hydroxypropylcellulose) (HPC)",102 % of control
same,T/C,"dose: 40.0 mg/kg/injection, schedule: Q01DX009 (ip), vehicle: Klucel (hydroxypropylcellulose) (HPC)",157 % of control and 161 % of control
same,T/C,"dose: 75.0 mg/kg/injection, schedule: Q01DX009 (ip), vehicle: Klucel (hydroxypropylcellulose) (HPC)",90 % of control
COCC(O)Cn1ccnc1[N+](=O)[O-] (stereo unspecified),T/C,[1],111 % of control
same,T/C,"dose: 12.5 mg/kg/injection, schedule: Q01DX009 (ip), vehicle: suspension in saline",124 % of control
same,T/C,[2],95 % of control
same,T/C,[3],105 % of control
same,T/C,[4],124 % of control
same,T/C,[5],100 % of control
same,T/C,[6],107 % of control
same,T/C,[7],103 % of control
same,T/C,[8],111 % of control
same,T/C,"dose: 100.0 mg/kg/injection, schedule: Q01DX009 (ip), vehicle: saline",101 % of control
same,T/C,[9],110 % of control
same,T/C,"dose: 100.0 mg/kg/injection, schedule: Q01DX009 (ip), vehicle: water",100 % of control
same,T/C,"dose: 200.0 mg/kg/injection, schedule: Q01DX009 (ip), vehicle: saline",107 % of control
same,T/C,"dose: 200.0 mg/kg/injection, schedule: Q01DX009 (ip), vehicle: suspension in saline",124 % of control
same,T/C,"dose: 200.0 mg/kg/injection, schedule: Q01DX009 (ip), vehicle: water",103 % of control
same,T/C,"dose: 400.0 mg/kg/injection, schedule: Q01DX009 (ip), vehicle: saline",104 % of control
same,T/C,"dose: 400.0 mg/kg/injection, schedule: Q01DX009 (ip), vehicle: water",100 % of control
CC(=O)NC(C=O)C(O)C(O)C(O)C(=O)O (stereo unspecified) (tested in a mixture with another compound),T/C,[10],100 % of control
same,T/C,[11],107 % of control
same,T/C,[12],98 % of control
Cc1ccc(NC(=O)c2ccc(C(=O)Nc3ccc(C)cc3)cc2)cc1,T/C,"dose: 12.5 mg/kg/injection, schedule: Q01DX009 (ip), vehicle: saline with Tween-80",117 % of control
same,T/C,[13],93 % of control
same,T/C,[14],100 % of control
O=c1c2cccc3cccc(c32)c2nc3ccccc3n12,T/C,"dose: 2.5 mg/kg/injection, schedule: Q01DX009 (ip), vehicle: saline with Tween-80",102 % of control
same,T/C,"dose: 5.0 mg/kg/injection, schedule: Q01DX009 (ip), vehicle: saline with Tween-80",114 % of control
OCC1OC(n2cnc3c(SCc4ccccc4)ncnc32)C(O)C1O (stereo unspecified),T/C,"dose: 37.5 mg/kg/injection, schedule: Q01DX009 (ip), vehicle: saline with Tween-80",121 % of control
OCc1ccc[n+](CCc2c[nH]c3ccccc23)c1,T/C,[13],102 % of control
same,T/C,[14],99 % of control
same,T/C,[15],102 % of control
CC1=C(/C=C/C(C)=N/NC(N)=S)C(C)(C)CCC1,T/C,"dose: 0.3 mg/kg/injection, schedule: Q01DX009 (ip), vehicle: saline with Tween-80",105 % of control
same,T/C,"dose: 6.0 mg/kg/injection, schedule: Q01DX009 (ip), vehicle: saline with Tween-80",97 % of control
same,T/C,"dose: 12.0 mg/kg/injection, schedule: Q01DX009 (ip), vehicle: saline with Tween-80",97 % of control
CC([NH-])C[NH-].[Cl][Pt+2][Cl] (stereo unspecified),T/C,"dose: 0.31 mg/kg/injection, schedule: Q01DX009 (ip), vehicle: saline",102 % of control
same,T/C,"dose: 0.31 mg/kg/injection, schedule: Q04DX003 (ip), vehicle: saline",89 % of control
same,T/C,"dose: 0.62 mg/kg/injection, schedule: Q01DX009 (ip), vehicle: saline",112 % of control
same,T/C,"dose: 0.62 mg/kg/injection, schedule: Q04DX003 (ip), vehicle: saline",100 % of control
same,T/C,"dose: 1.25 mg/kg/injection, schedule: Q01DX009 (ip), vehicle: saline",110 % of control
same,T/C,"dose: 1.25 mg/kg/injection, schedule: Q04DX003 (ip), vehicle: saline",107 % of control
Clc1ccc2sc3c(c2c1)CCNC3,T/C,[11],94 % of control
same,T/C,[12],111 % of control
same,T/C,[16],111 % of control
same,T/C,"dose: 100.0 mg/kg/injection, schedule: Q01DX009 (ip), vehicle: Klucel (hydroxypropylcellulose) (HPC)",105 % of control
C1CN2CN3CCN(CN1C3)C2,T/C,[1],99 % of control and 114 % of control
same,T/C,[3],103 % of control and 113 % of control
same,T/C,[6],123 % of control
Nc1nc2c(ncn2C2OC(CO)C(O)C2O)c(=O)[nH]1 (stereo unspecified),T/C,[4],101 % of control
same,T/C,[7],110 % of control
same,T/C,[9],113 % of control
same,T/C,"dose: 400.0 mg/kg/injection, schedule: Q01DX009 (ip), vehicle: suspension in saline",116 % of control
Oc1ccc2ccccc2c1C1=NNc2n[nH]c(=S)n2N1,T/C,[11],100 % of control
same,T/C,[12],103 % of control
same,T/C,[16],112 % of control
[Cl][Mn][Cl],T/C,"dose: 6.25 mg/kg/injection, schedule: Q01DX009 (ip), vehicle: water",100 % of control
same,T/C,[2],98 % of control
same,T/C,"dose: 17.8 mg/kg/injection, schedule: Q01DX009 (ip), vehicle: saline",104 % of control
same,T/C,"dose: 17.8 mg/kg/injection, schedule: Q01DX009 (sc), vehicle: water",101 % of control
same,T/C,[5],109 % of control
same,T/C,"dose: 26.7 mg/kg/injection, schedule: Q01DX009 (ip), vehicle: saline",110 % of control and 114 % of control
same,T/C,"dose: 26.7 mg/kg/injection, schedule: Q01DX009 (sc), vehicle: water",99 % of control
same,T/C,"dose: 40.0 mg/kg/injection, schedule: Q01DX009 (ip), vehicle: saline",107 % of control and 117 % of control
same,T/C,"dose: 40.0 mg/kg/injection, schedule: Q01DX009 (sc), vehicle: water",104 % of control
same,T/C,[8],114 % of control
same,T/C,"dose: 60.0 mg/kg/injection, schedule: Q01DX009 (ip), vehicle: saline",106 % of control and 119 % of control
same,T/C,"dose: 60.0 mg/kg/injection, schedule: Q01DX009 (ip), vehicle: water",163 % of control
same,T/C,"dose: 60.0 mg/kg/injection, schedule: Q01DX009 (sc), vehicle: water",104 % of control
same,T/C,"dose: 90.0 mg/kg/injection, schedule: Q01DX009 (sc), vehicle: water",104 % of control
Cc1cccc(CN2CCN(C(c3ccccc3)c3ccc(Cl)cc3)CC2)c1 (stereo unspecified),T/C,"dose: 3.12 mg/kg/injection, schedule: Q04DX003 (ip), vehicle: Klucel (hydroxypropylcellulose) (HPC)",97 % of control
same,T/C,"dose: 6.25 mg/kg/injection, schedule: Q04DX003 (ip), vehicle: Klucel (hydroxypropylcellulose) (HPC)",101 % of control
same,T/C,[11],86 % of control
same,T/C,"dose: 12.5 mg/kg/injection, schedule: Q04DX003 (ip), vehicle: Klucel (hydroxypropylcellulose) (HPC)",96 % of control
same,T/C,[12],86 % of control
same,T/C,"dose: 25.0 mg/kg/injection, schedule: Q04DX003 (ip), vehicle: Klucel (hydroxypropylcellulose) (HPC)",96 % of control
same,T/C,[16],86 % of control
same,T/C,"dose: 50.0 mg/kg/injection, schedule: Q04DX003 (ip), vehicle: Klucel (hydroxypropylcellulose) (HPC)",89 % of control
same,T/C,"dose: 100.0 mg/kg/injection, schedule: Q04DX003 (ip), vehicle: Klucel (hydroxypropylcellulose) (HPC)",88 % of control
Cc1c(Cl)cccc1NC(=O)C(c1ccccc1)c1ccccc1,T/C,[13],99 % of control
same,T/C,[14],86 % of control
same,T/C,[15],91 % of control
O=C(COc1ccc(Cl)cc1)Nc1cc(C(F)(F)F)ccc1Cl,T/C,[13],103 % of control
same,T/C,[14],96 % of control
same,T/C,[15],105 % of control
CC[C@@H](C(=O)[C@@H](C)[C@@H](O)[C@H](C)CCc1ccc(C)c(O)c1C(=O)O)[C@H]1O[C@](CC)([C@H]2CC[C@](O)(CC)[C@H](C)O2)C[C@@H]1C,T/C,"dose: 1.56 mg/kg/injection, schedule: Q01DX009 (ip), vehicle: Klucel (hydroxypropylcellulose) (HPC)",111 % of control
same,T/C,"dose: 3.12 mg/kg/injection, schedule: Q01DX009 (ip), vehicle: Klucel (hydroxypropylcellulose) (HPC)",102 % of control
same,T/C,[10],111 % of control
